Measurements as given in the NIST ThermoML archive (doi:10.1016/j.jct.2009.11.010).

Key:
[1] = Liquid, Vibrating tube method
[2] = molar heat capacity at saturation pressure; details: Liquid

c1ccc2nc3ccccc3cc2c1 [acridine]
Details	mass density [kg/m3]	molar heat capacity [J/K/mol]
[1], 423.15 K	1064.9	–
[1], 448.15 K	1043.7	–
[1], 473.15 K	1023.9	–
[1], 498.15 K	1005.1	–
[1], 523.15 K	985.4	–
[1], 548.15 K	964.8	–
[2], 460 K	–	343.6
[2], 480 K	–	352.2
[2], 500 K	–	360.6
[2], 520 K	–	368.7
[2], 540 K	–	376.4
[2], 560 K	–	383.8
[2], 580 K	–	390.8
[2], 600 K	–	397.3
